Measurements taken from BindingDB's records for doi:10.1021/jm5003167 (Bristol-Myers Squibb, 2014).

Legend:
[1] = Antagonist activity at CCR1 receptor in human THP1 cells assessed as inhibition of MIP-1alpha induced chemotaxis after 60 mins
[2] = Antagonist activity at CCR1 receptor in human THP1 cells assessed as inhibition of MCP3-induced chemotaxis after 60 mins
[3] = Antagonist activity at CCR1 receptor in human THP1 cells assessed as inhibition of HCC1-induced chemotaxis after 60 mins
[4] = Antagonist activity at CCR1 receptor in human THP1 cells assessed as inhibition of LKN1-induced chemotaxis after 60 mins
[5] = Antagonist activity at CCR1 receptor in human THP1 cells assessed as inhibition of HCC4-induced chemotaxis after 60 mins
[6] = Antagonist activity at CCR1 receptor in human THP1 cells assessed as inhibition of MPIF1-induced chemotaxis after 60 mins
[7] = Antagonist activity at CCR1 receptor in human THP1 cells assessed as inhibition of RANTES-induced chemotaxis after 60 mins
[8] = Antagonist activity at CCR1 receptor in human THP1 cells assessed as inhibition of MIP-1alpha-induced chemotaxis after 60 mins

Row | Structure (SMILES) | IC50 [1] [nM] | also measured
1 | CC(C)[C@@H](NC(=O)N[C@@H]1CC[C@H](O)C1)C(=O)N1CC[C@](O)(c2ccc(Cl)cc2)C(C)(C)C1 | 4 | 
2 | CC(C)[C@@H](NC(=O)N[C@H]1CC[C@H](O)C1)C(=O)N1CC[C@](O)(c2ccc(Cl)cc2)C(C)(C)C1 | 10 | 
3 | CC(C)[C@@H](NC(=O)CCC(C)(C)O)C(=O)N1CC[C@](O)(c2ccc(Cl)cc2)C(C)(C)C1 | 22 | 
4 | CC(C)[C@@H](NC(=O)NC[C@H](C)O)C(=O)N1CC[C@](O)(c2ccc(Cl)cc2)C(C)(C)C1 | 7 | 
5 | CC(C)[C@@H](NC(=O)NC[C@@H](C)O)C(=O)N1CC[C@](O)(c2ccc(Cl)cc2)C(C)(C)C1 | 6 | 
6 | CC(C)[C@@H](NC(=O)N[C@H]1CC[C@@H](O)C1)C(=O)N1CC[C@](O)(c2ccc(Cl)cc2)C(C)(C)C1 | 6 | 
7 | CC[C@@H](C)NC(=O)N[C@@H](C(=O)N1CC[C@](O)(c2ccc(Cl)cc2)C(C)(C)C1)C(C)C [US8633226, 897] | 6 | 
8 | CC(C)[C@@H](NC(=O)NCC(C)(C)O)C(=O)N1CC[C@](O)(c2ccc(Cl)cc2)C(C)(C)C1 | 6 | IC50 [2]: 9.3 nM; IC50 [3]: 7.5 nM; IC50 [4]: 16 nM; IC50 [5]: 3.2 nM; IC50 [6]: 14 nM; IC50 [7]: 3.3 nM; IC50 [8]: 5.5 nM
9 | CC(C)[C@@H](NC(=O)NC1CCCC1)C(=O)N1CC[C@](O)(c2ccc(Cl)cc2)C(C)(C)C1 | 3 | 
10 | CC(C)[C@@H](NC(=O)N[C@@H]1CC[C@@H](O)C1)C(=O)N1CC[C@](O)(c2ccc(Cl)cc2)C(C)(C)C1 | 19 | 
